Experimental data as given in article PMC5218480 (PLoS ONE, 2017).

Tested on: MV-4-11 cells
Assay: Gene expression microarray analysis (Affymetrix PrimeView) and GSEA
Format: cell-based, human
Set-up: RFU PODN (11730768_x_at) / Fold change /veh PODN (11730768_x_at) / RFU LINC00158 (11744669_a_at) / Fold change /veh LINC00158 (11744669_a_at) / RFU DUSP10 (11751237_a_at) / Fold change /veh DUSP10 (11751237_a_at) / RFU ID3 (11757404_x_at) / Fold change /veh ID3 (11757404_x_at) / RFU PLEKHG5 (11737974_s_at) / Fold change /veh PLEKHG5 (11737974_s_at) / RFU LRRC4B (11730491_at) / Fold change /veh LRRC4B (11730491_at) / RFU GIMAP4 (11747438_a_at) / Fold change /veh GIMAP4 (11747438_a_at) / RFU KRT8 (11758183_x_at) / Fold change /veh KRT8 (11758183_x_at) / RFU CNN1 (11734310_a_at) / Fold change /veh CNN1 (11734310_a_at) / RFU VPS37D (11726825_at) / Fold change /veh VPS37D (11726825_at) / RFU C10orf10 (11716522_x_at) / Fold change /veh C10orf10 (11716522_x_at) / RFU KIR2DL2 /// KIR2DL4 /// KIR2DL5A /// KIR2DL5B /// KIR2DS1 /// KIR2DS2 /// KIR2DS3 /// KIR2DS4 /// KIR3DL3 /// KIR3DL3 /// KIR3DS1 (11738374_at) / Fold change /veh KIR2DL2 /// KIR2DL4 /// KIR2DL5A /// KIR2DL5B /// KIR2DS1 /// KIR2DS2 /// KIR2DS3 /// KIR2DS4 /// KIR3DL3 /// KIR3DL3 /// KIR3DS1 (11738374_at) / RFU C1QL1 (11718748_at) / Fold change /veh C1QL1 (11718748_at) / RFU TMPRSS4 (11747572_a_at) / Fold change /veh TMPRSS4 (11747572_a_at) / RFU HAMP (11756126_x_at) / Fold change /veh HAMP (11756126_x_at) / RFU RNFT2 (11725882_a_at) / Fold change /veh RNFT2 (11725882_a_at) / RFU NR4A2 (11747474_a_at) / Fold change /veh NR4A2 (11747474_a_at) / RFU ABCC12 (11746883_a_at) / Fold change /veh ABCC12 (11746883_a_at) / RFU TMEM136 (11760407_x_at) / Fold change /veh TMEM136 (11760407_x_at) / RFU CLDN22 /// WWC2 (11732394_at) / Fold change /veh CLDN22 /// WWC2 (11732394_at) / RFU HLA-DPB1 (11760878_x_at) / Fold change /veh HLA-DPB1 (11760878_x_at) / RFU SPINT1 (11716480_a_at) / Fold change /veh SPINT1 (11716480_a_at) / RFU GAP43 (11754022_s_at) / Fold change /veh GAP43 (11754022_s_at) / RFU A4GNT (11735810_at) / Fold change /veh A4GNT (11735810_at) / RFU PRB3 (11715151_x_at) / Fold change /veh PRB3 (11715151_x_at) / RFU TUBB4B (11761932_at) / Fold change /veh TUBB4B (11761932_at) / RFU CAPN14 (11732068_a_at) / Fold change /veh CAPN14 (11732068_a_at) / RFU TMCC2 (11721928_a_at) / Fold change /veh TMCC2 (11721928_a_at) / RFU IRGQ (11745062_a_at) / Fold change /veh IRGQ (11745062_a_at) / RFU FAM174B (11720279_a_at) / Fold change /veh FAM174B (11720279_a_at) / RFU TMPRSS4 (11748680_a_at) / Fold change /veh TMPRSS4 (11748680_a_at) / RFU FAM212B (11763350_a_at) / Fold change /veh FAM212B (11763350_a_at) / RFU PLEKHG5 (11743358_a_at) / Fold change /veh PLEKHG5 (11743358_a_at) / RFU ZSCAN30 (11745921_a_at) / Fold change /veh ZSCAN30 (11745921_a_at) / RFU CMKLR1 (11741424_a_at) / Fold change /veh CMKLR1 (11741424_a_at) / RFU LOC101060620 /// MAPK8IP1 (11723275_at) / Fold change /veh LOC101060620 /// MAPK8IP1 (11723275_at) / RFU SPTSSB (11747773_x_at) / Fold change /veh SPTSSB (11747773_x_at) / RFU PRSS12 (11739890_at) / Fold change /veh PRSS12 (11739890_at) / RFU BIN1 (11741810_x_at) / Fold change /veh BIN1 (11741810_x_at) / RFU WNT11 (11732464_a_at) / Fold change /veh WNT11 (11732464_a_at) / RFU C10orf10 (11716521_a_at) / Fold change /veh C10orf10 (11716521_a_at) / RFU C5orf56 (11738089_at) / Fold change /veh C5orf56 (11738089_at) / RFU CYB561 (11721691_x_at) / Fold change /veh CYB561 (11721691_x_at) / RFU ANKRD19P (11752326_a_at) / Fold change /veh ANKRD19P (11752326_a_at) / RFU OR2T12 /// OR2T33 /// OR2T8 (11738714_s_at) / Fold change /veh OR2T12 /// OR2T33 /// OR2T8 (11738714_s_at) / RFU VCAN (11748164_a_at) / Fold change /veh VCAN (11748164_a_at) / RFU JSRP1 (11732532_at) / Fold change /veh JSRP1 (11732532_at) / RFU KRTAP10-11 (11738290_x_at) / Fold change /veh KRTAP10-11 (11738290_x_at) / RFU MYO3A (11730013_a_at) / Fold change /veh MYO3A (11730013_a_at) / RFU EBF3 (11725865_a_at) / Fold change /veh EBF3 (11725865_a_at) / RFU CAMK2N1 (11719241_x_at) / Fold change /veh CAMK2N1 (11719241_x_at) / RFU C5orf56 (11738088_a_at) / Fold change /veh C5orf56 (11738088_a_at) / RFU OLFML3 (11715873_a_at) / Fold change /veh OLFML3 (11715873_a_at) / RFU LOC100653217 /// NTM (11731650_a_at) / Fold change /veh LOC100653217 /// NTM (11731650_a_at) / RFU MAPK11 (11762145_a_at) / Fold change /veh MAPK11 (11762145_a_at) / RFU FIZ1 (11724087_x_at) / Fold change /veh FIZ1 (11724087_x_at) / RFU OASL (11726364_x_at) / Fold change /veh OASL (11726364_x_at) / RFU SOX15 (11748057_x_at) / Fold change /veh SOX15 (11748057_x_at) / RFU CD79A (11719716_a_at) / Fold change /veh CD79A (11719716_a_at) / RFU HIST1H1D (11736915_at) / Fold change /veh HIST1H1D (11736915_at) / RFU CASKIN2 (11723855_a_at) / Fold change /veh CASKIN2 (11723855_a_at) / RFU LOC730098 (11760151_x_at) / Fold change /veh LOC730098 (11760151_x_at) / RFU OR4N2 (11742367_at) / Fold change /veh OR4N2 (11742367_at) / RFU PRRT2 (11749266_a_at) / Fold change /veh PRRT2 (11749266_a_at) / RFU SNX32 (11753110_a_at) / Fold change /veh SNX32 (11753110_a_at) / RFU CDHR5 (11726645_a_at) / Fold change /veh CDHR5 (11726645_a_at) / RFU RCAN1 (11760418_a_at) / Fold change /veh RCAN1 (11760418_a_at) / RFU FAM167A (11723789_a_at) / Fold change /veh FAM167A (11723789_a_at) / RFU FAM26E (11764081_at) / Fold change /veh FAM26E (11764081_at) / RFU ISYNA1 (11749810_s_at) / Fold change /veh ISYNA1 (11749810_s_at) / RFU ACY1 (11761880_at) / Fold change /veh ACY1 (11761880_at) / RFU 11764098_at / Fold change /veh 11764098_at / RFU SAMD14 (11745864_x_at) / Fold change /veh SAMD14 (11745864_x_at) / RFU NPB (11741838_a_at) / Fold change /veh NPB (11741838_a_at) / RFU TMPRSS6 (11731388_a_at) / Fold change /veh TMPRSS6 (11731388_a_at) / RFU KRTAP10-2 (11738614_at) / Fold change /veh KRTAP10-2 (11738614_at) / RFU ARHGAP8 /// PRR5-ARHGAP8 (11727945_x_at) / Fold change /veh ARHGAP8 /// PRR5-ARHGAP8 (11727945_x_at) / RFU KRTAP5-7 /// NADSYN1 (11734609_at) / Fold change /veh KRTAP5-7 /// NADSYN1 (11734609_at) / RFU RASL12 (11751679_a_at) / Fold change /veh RASL12 (11751679_a_at) / RFU CDKN2B (11736163_a_at) / Fold change /veh CDKN2B (11736163_a_at) / RFU PRF1 (11729649_at) / Fold change /veh PRF1 (11729649_at) / RFU, ZNF638 /// ZNF638-IT1 / Fold change vs veh, ZNF638 /// ZNF638-IT1 / RFU, PANK3 / Fold change vs veh, PANK3 / RFU, SH3YL1 / Fold change vs veh, SH3YL1 / RFU, ZEB2 / Fold change vs veh, ZEB2 / RFU, NRIP1 / Fold change vs veh, NRIP1 / RFU, PTTG1IP / Fold change vs veh, PTTG1IP / RFU, CAPN2 / Fold change vs veh, CAPN2 / RFU, MED14 / Fold change vs veh, MED14 / RFU, SNORA58 / Fold change vs veh, SNORA58 / RFU, C1orf63 / Fold change vs veh, C1orf63 / RFU, LRRFIP1 / Fold change vs veh, LRRFIP1 / RFU, NDUFAF7 / Fold change vs veh, NDUFAF7 / RFU, SLC12A2 / Fold change vs veh, SLC12A2 / RFU, IBTK / Fold change vs veh, IBTK / RFU, ESF1 / Fold change vs veh, ESF1 / Fold change vs veh, TMEM50B / RFU, TAOK1 / Fold change vs veh, TAOK1 / RFU, ACBD3 / Fold change vs veh, ACBD3 / RFU, TMA16 / Fold change vs veh, TMA16 / RFU, RWDD3 / Fold change vs veh, RWDD3 / RFU, BCAT1 / Fold change vs veh, BCAT1 / RFU, EDEM3 / Fold change vs veh, EDEM3 / RFU, TMEM33 / Fold change vs veh, TMEM33 / RFU, WDR75 / Fold change vs veh, WDR75 / RFU, AHCTF1 / Fold change vs veh, AHCTF1 / RFU, TFRC / Fold change vs veh, TFRC / RFU, ZDHHC17 / Fold change vs veh, ZDHHC17 / RFU, NOM1 / Fold change vs veh, NOM1 / RFU, ARL8B / Fold change vs veh, ARL8B / RFU, ZBTB11 / Fold change vs veh, ZBTB11 / RFU, TAMM41 / Fold change vs veh, TAMM41 / RFU, KIAA1704 /// LOC100996395 / Fold change vs veh, KIAA1704 /// LOC100996395 / RFU, ING1 / Fold change vs veh, ING1 / RFU, TRMT61B / Fold change vs veh, TRMT61B / RFU, FUBP3 / Fold change vs veh, FUBP3 / RFU, TP53 / Fold change vs veh, TP53 / RFU, TNKS2 / Fold change vs veh, TNKS2 / RFU, ZFP14 / Fold change vs veh, ZFP14 / RFU, ACTR2 / Fold change vs veh, ACTR2 / RFU, PPP3R1 / Fold change vs veh, PPP3R1 / RFU, PIK3R1 / Fold change vs veh, PIK3R1 / RFU, HNRNPA1 / Fold change vs veh, HNRNPA1 / RFU, RNF170 / Fold change vs veh, RNF170 / RFU, ZNF28 / Fold change vs veh, ZNF28 / RFU, RNGTT / Fold change vs veh, RNGTT / RFU, OGT / Fold change vs veh, OGT / RFU, BRD1 / Fold change vs veh, BRD1 / RFU, MARS / Fold change vs veh, MARS / RFU, ZNF655 / Fold change vs veh, ZNF655 / RFU, FAHD1 / Fold change vs veh, FAHD1 / RFU, BDP1 / Fold change vs veh, BDP1 / RFU, LRRCC1 / Fold change vs veh, LRRCC1 / RFU, ARID1A / Fold change vs veh, ARID1A / RFU, ZNF146 / Fold change vs veh, ZNF146 / RFU, ZNF330 / Fold change vs veh, ZNF330 / RFU, GPN3 / Fold change vs veh, GPN3 / RFU, C9orf123 / Fold change vs veh, C9orf123 / RFU, N4BP2L2 / Fold change vs veh, N4BP2L2 / RFU, ARFIP1 / Fold change vs veh, ARFIP1 / RFU, FAM179B / Fold change vs veh, FAM179B / RFU, BCL10 / Fold change vs veh, BCL10 / RFU, UHRF1BP1L / Fold change vs veh, UHRF1BP1L / RFU, BET1 / Fold change vs veh, BET1 / RFU, CNOT2 / Fold change vs veh, CNOT2 / RFU, ZNF268 / Fold change vs veh, ZNF268 / Fold change vs veh, ZNF507 / RFU, DGCR2 / Fold change vs veh, DGCR2 / RFU, WDSUB1 / Fold change vs veh, WDSUB1 / Fold change vs veh, HSP90B1 /// MIR3652 / RFU, ADSS / Fold change vs veh, ADSS / RFU, GK / Fold change vs veh, GK / RFU, ZNF148 / Fold change vs veh, ZNF148 / RFU, TAF9 / Fold change vs veh, TAF9 / RFU, SLC1A5 / Fold change vs veh, SLC1A5 / RFU, SLMO2 / Fold change vs veh, SLMO2 / RFU, ABCC4 / Fold change vs veh, ABCC4 / RFU, LOC101060439 /// RAP1B / Fold change vs veh, LOC101060439 /// RAP1B / RFU, RFX7 / Fold change vs veh, RFX7 / RFU, GTPBP10 / Fold change vs veh, GTPBP10 / RFU, CNEP1R1 / Fold change vs veh, CNEP1R1 / RFU, BIVM-ERCC5 /// ERCC5 / Fold change vs veh, BIVM-ERCC5 /// ERCC5 / RFU, ILF3 / Fold change vs veh, ILF3 / RFU 11762660_at / Fold change /veh 11762660_at / RFU VCAN (11757783_s_at) / Fold change /veh VCAN (11757783_s_at) / RFU DDX43 (11728927_at) / Fold change /veh DDX43 (11728927_at) / RFU KRT8 (11758188_x_at) / Fold change /veh KRT8 (11758188_x_at) / RFU NKD1 (11759106_at) / Fold change /veh NKD1 (11759106_at) / RFU SRD5A1 (11742802_a_at) / Fold change /veh SRD5A1 (11742802_a_at) / RFU TPSAB1 /// TPSB2 (11721975_s_at) / Fold change /veh TPSAB1 /// TPSB2 (11721975_s_at) / RFU GSTM3 (11746129_a_at) / Fold change /veh GSTM3 (11746129_a_at) / RFU IL23R (11737362_x_at) / Fold change /veh IL23R (11737362_x_at) / RFU TMEM51 (11727254_a_at) / Fold change /veh TMEM51 (11727254_a_at) / RFU PIWIL2 (11732686_x_at) / Fold change /veh PIWIL2 (11732686_x_at) / RFU ORM1 (11744905_x_at) / Fold change /veh ORM1 (11744905_x_at) / RFU CCDC152 (11743942_at) / Fold change /veh CCDC152 (11743942_at) / RFU ECM1 (11717891_a_at) / Fold change /veh ECM1 (11717891_a_at) / RFU IL23R (11748794_a_at) / Fold change /veh IL23R (11748794_a_at) / RFU TNFAIP8L3 (11732012_x_at) / Fold change /veh TNFAIP8L3 (11732012_x_at) / RFU MBOAT4 (11741988_at) / Fold change /veh MBOAT4 (11741988_at) / RFU 11764193_at / Fold change /veh 11764193_at / RFU TMEM53 (11763286_at) / Fold change /veh TMEM53 (11763286_at) / RFU MAGEB2 (11727129_at) / Fold change /veh MAGEB2 (11727129_at) / RFU TMEM200A (11744735_a_at) / Fold change /veh TMEM200A (11744735_a_at) / RFU CCDC152 (11751479_a_at) / Fold change /veh CCDC152 (11751479_a_at) / RFU FAM211A (11726209_a_at) / Fold change /veh FAM211A (11726209_a_at) / RFU RGS16 (11746705_a_at) / Fold change /veh RGS16 (11746705_a_at) / RFU VCAN (11755009_s_at) / Fold change /veh VCAN (11755009_s_at) / RFU RHOB (11743442_s_at) / Fold change /veh RHOB (11743442_s_at) / RFU RGS16 (11720943_a_at) / Fold change /veh RGS16 (11720943_a_at) / RFU RGS16 (11720944_at) / Fold change /veh RGS16 (11720944_at) / RFU, VPS4B / Fold change vs veh, VPS4B / RFU, CREB1 / Fold change vs veh, CREB1 / RFU, DNAJC13 / Fold change vs veh, DNAJC13 / RFU, GNAQ / Fold change vs veh, GNAQ / RFU, CDK5R1 / Fold change vs veh, CDK5R1 / RFU, ZRANB3 / Fold change vs veh, ZRANB3 / RFU, CUL4A / Fold change vs veh, CUL4A / RFU, CCNY / Fold change vs veh, CCNY / RFU, UFL1 / Fold change vs veh, UFL1 / RFU, COG3 / Fold change vs veh, COG3 / RFU, DIAPH2 / Fold change vs veh, DIAPH2 / RFU, SKA2 / Fold change vs veh, SKA2 / RFU, AFF3 / Fold change vs veh, AFF3 / RFU, LMF1 / Fold change vs veh, LMF1 / RFU, IPO11 / Fold change vs veh, IPO11 / RFU, DFFB / Fold change vs veh, DFFB / RFU, FOXP1 / Fold change vs veh, FOXP1 / RFU, CARD8 / Fold change vs veh, CARD8 / RFU, STRN3 / Fold change vs veh, STRN3 / RFU, ADK / Fold change vs veh, ADK / RFU, RASSF2 / Fold change vs veh, RASSF2 / RFU, WIPF1 / Fold change vs veh, WIPF1 / RFU, LARP1B / Fold change vs veh, LARP1B / RFU, RASA1 / Fold change vs veh, RASA1 / RFU, RB1 / Fold change vs veh, RB1 / RFU, PPFIA1 / Fold change vs veh, PPFIA1 / RFU, MAT2A / Fold change vs veh, MAT2A / RFU, CCT5 / Fold change vs veh, CCT5 / RFU, WDR92 / Fold change vs veh, WDR92 / RFU, CUX1 / Fold change vs veh, CUX1 / RFU, TTC7A / Fold change vs veh, TTC7A / RFU, TMEM135 / Fold change vs veh, TMEM135 / RFU, DEPTOR / Fold change vs veh, DEPTOR / RFU, CPM / Fold change vs veh, CPM / RFU, DNAJB6 / Fold change vs veh, DNAJB6 / RFU, CACNA2D3 / Fold change vs veh, CACNA2D3 / RFU, DTX4 / Fold change vs veh, DTX4 / RFU, TFCP2 / Fold change vs veh, TFCP2 / RFU, GMCL1 /// GMCL1P1 / Fold change vs veh, GMCL1 /// GMCL1P1 / RFU, AEBP2 / Fold change vs veh, AEBP2 / RFU, SNHG1 /// SNORD22 /// SNORD25 /// SNORD26 /// SNORD27 /// SNORD28 /// SNORD29 /// SNORD31 / Fold change vs veh, SNHG1 /// SNORD22 /// SNORD25 /// SNORD26 /// SNORD27 /// SNORD28 /// SNORD29 /// SNORD31 / Fold change (Aza/veh), C12orf56 (ProbeSet 11735607_a_at) / Fold change (ACY-1035/veh), C12orf56 (ProbeSet 11735607_a_at) / Fold change (Aza/veh), FGFR1OP (ProbeSet 11751329_s_at) / Fold change (ACY-1035/veh), FGFR1OP (ProbeSet 11751329_s_at) / Fold change (Aza/veh), VPS36 (ProbeSet 11739960_a_at) / Fold change (ACY-1035/veh), VPS36 (ProbeSet 11739960_a_at) / RFU SYPL1 (11715823_x_at) / Fold change /veh SYPL1 (11715823_x_at) / RFU IGFBP7 (11715501_s_at) / Fold change /veh IGFBP7 (11715501_s_at) / RFU REEP3 (11722064_at) / Fold change /veh REEP3 (11722064_at) / RFU IGLL1 (11728026_x_at) / Fold change /veh IGLL1 (11728026_x_at): dose or concentration left out as unconfirmed
Conditions: ProbeSet 11740528_a_at; LIST D

Nc1ncn([C@@H]2O[C@H](CO)[C@@H](O)[C@H]2O)c(=O)n1 [azacitidine] was tested, and the “Fold change vs veh, AFF3” value was 0.47.
